Laboratory results reported in patent US20230312700A1, “TREATMENT OF A DISEASE OF THE GASTROINTESTINAL TRACT WITH A TNF INHIBITOR” (Progenity, Inc., priority 2018, published 2023).

Experiment: Example 10: tacrolimus tissue, plasma, rectal and GI content pharmacokinetics, oral vs intra-cecal ingestible device
Parameters: species or system Yorkshire-Cross farm swine
Conditions: female, Yorkshire-Cross, swine, in vivo, 0.09 mg/kg
Protocol: The primary objective of this study was to compare the tissue, plasma, rectal sample, and GI content pharmacokinetics of tacrolimus through oral versus intra-cecal ingestible device delivery in normal Yorkshire-Cross farm swine.
No further randomization procedure was employed.
Animals in Group 1 received an ingestible device containing 0.8 mL of vehicle solution (80% alcohol, 20% HCO-60). Animals in Group 2 received orally […] liquid formulation of tacrolimus at 4 mg/0.8 mL per animal (Prograf: 5 mg/mL). Animals in Group 3 received intra-cecally an ingestible device containing tacrolimus at 1 mg in 0.8 mL per ingestible device. […]
Approximately 200-400 mg of rectal content were collected, if available, with a fecal swab (Copan Diagnostics Nylon Flocked Dry Swabs, 502CS01). The fecal swab was pre-weighed and weighed after collection in the collection tube (Sterile Tube and Cap No Media, PFPM913S), and the sample weight was recorded. […]
For tissue necropsy, small intestine fluid and cecal fluid were collected separately from all the animals into two separate square plastic bottles, and stored at −20° C. The length and diameter of the cecum and the colon was measured from one animal in each group and recorded for reference. […] All samples were weighed, and the tissue sample weights were recorded. […]

concentration at 12 h: 4.38 ± 0.516 ng/mL
Compound: C=CC[C@@H]1/C=C(\C)C[C@H](C)C[C@H](OC)[C@H]2O[C@@](O)(C(=O)C(=O)N3CCCC[C@H]3C(=O)O[C@H](/C(C)=C/[C@@H]3CC[C@@H](O)[C@H](OC)C3)[C@H](C)[C@@H](O)CC1=O)[C@H](C)C[C@@H]2OC [tacrolimus]
